Source: the supplement of paper PMC11208160

Assay: recombinant barcode read abundance after kanamycin selection (control-corrected) (log10(CPM+1)); higher = more efficient recombination; sequences stand for … in AGTGCAGAGAAAATCGGCCAGTTTTCTCTGCCTGCAGTCCGCATGCCGT…AGATTTATGCAGCGGACTGCCTTTCTCCCAAAGTGATAAACCGGACAGTATCATGGACCGGTTTTCCCGGTAATCCGTATTTGCAAGGTTGGTTTCACT; site = the 11-nt target
How it was run: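 In E. coli, a pooled library matched targets to IS621 bridge RNA target-binding loops and was introduced alongside a donor plasmid. Cells went onto chloramphenicol/ampicillin/kanamycin with 0.1 mM IPTG or onto chloramphenicol/ampicillin LB agar as control, in duplicate. Recombination efficiency, from recombinant-junction barcodes as counts per million, is averaged and control-corrected. It is reported as log10(CPM+1).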
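Further: IS621 recombinase and bridge RNA in Escherichia coli cells.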

Row | Sequence | recombinant barcode read abundance (log10)
1 | CTAACTACTTGGGTTCTAACCTGTTGCCT (site CTAACTACTAG) | 0.26
2 | CTAACTACTTGGGTTCTAACCTGTTGCGT (site CTAACTACTAC) | 0.181
3 | CTAACTACTTGGGTTCTAACCTGTTGCGT (site GAGGTGCCTCA) | 0.0974
4 | CTAAGAACTTGGGTTCTAACCTGTTGCTT (site CTAAGAACTAA) | 0.254
5 | CTAAGAACTTGGGTTCTAACCTGTTGCTT (site CTAAGAACTAC) | 0.509
6 | CTAAGAACTTGGGTTCTAACCTGTTGCTT (site CTAAGAACTAG) | 0.135
7 | CTAAGAACTTGGGTTCTAACCTGTTGCTT (site CTAAGAACTAT) | 0.086
8 | CTAAGAGCTTGGGTTCTAACCTGTTGCAG (site CTAAGAGCTCG) | 0.123
9 | CTAAGAGCTTGGGTTCTAACCTGTTGCAG (site CTAAGAGCTCT) | 1.98
10 | CTAAGCGCTTGGGTTCTAACCTGTTGCCT (site AGTCAGACTGT) | 0.463
11 | CTAAGCGCTTGGGTTCTAACCTGTTGCCT (site CTAAGCGCTAG) | 0.346
12 | CTAAGCTCTTGGGTTCTAACCTGTTGCCT (site ATAAGCTCTAG) | 0.129
13 | CTAAGCTCTTGGGTTCTAACCTGTTGCCT (site CTAAGCTCTAG) | 0.756
14 | CTAAGCTCTTGGGTTCTAACCTGTTGCCT (site GTAAGCTCTAG) | 0.0807
15 | CTAAGCTCTTGGGTTCTAACCTGTTGCCT (site TTAAGCTCTAG) | 0.201
16 | CTAAGCTCTTGGGTTCTAACCTGTTGCTC (site CTAAGCTCTAA) | 0.537
17 | CTAAGCTCTTGGGTTCTAACCTGTTGCTC (site CTAAGCTCTCA) | 0.0828
18 | CTAAGCTCTTGGGTTCTAACCTGTTGCTC (site CTAAGCTCTGA) | 1.03
19 | CTAAGCTCTTGGGTTCTAACCTGTTGCTC (site CTAAGCTCTTA) | 0.119
20 | CTAAGGTCTTGGGTTCTAACCTGTTGCCT (site CTAAGGTCTAA) | 0.745

Row | Sequence | recombinant barcode read abundance (log10)
21 | CTAAGGTCTTGGGTTCTAACCTGTTGCCT (site CTAAGGTCTAC) | 0.122
22 | CTAAGGTCTTGGGTTCTAACCTGTTGCCT (site CTAAGGTCTAG) | 0.923
23 | CTAAGGTCTTGGGTTCTAACCTGTTGCCT (site CTAAGGTCTAT) | 0.222
24 | CTAATACCTTGGGTTCTAACCTGTTGCGT (site CTAATACCTAC) | 1.04
25 | CTAATACCTTGGGTTCTAACCTGTTGCGT (site CTCATACCTAC) | 0.0518
26 | CTAATGTCTTGGGTTCTAACCTGTTGCCT (site CTAATGTCTAG) | 1.65
27 | CTAATGTCTTGGGTTCTAACCTGTTGCCT (site CTAATGTCTTG) | 0.0145
28 | CTAATTGCTTGGGTTCTAACCTGTTGCAA (site CTAATTGCTTT) | 0.0868
29 | CTAATTGCTTGGGTTCTAACCTGTTGCAA (site CTACTTGCTTT) | 0.0139
30 | CTAATTGCTTGGGTTCTAACCTGTTGCAA (site CTAGTTGCTTT) | 0.344
31 | CTAATTGCTTGGGTTCTAACCTGTTGCAA (site CTATTTGCTTT) | 0.0237
32 | CTACAATCTTGGGTTCTAACCTGTTGCAT (site CTACAATCTAA) | 0.192
33 | CTACAATCTTGGGTTCTAACCTGTTGCAT (site CTACAATCTAT) | 1.51
34 | CTACAATCTTGGGTTCTAACCTGTTGCTT (site CTACAATCTAA) | 1.17
35 | CTACAATCTTGGGTTCTAACCTGTTGCTT (site CTACAATCTAT) | 0.816
36 | CTACACCCTTGGGTTCTAACCTGTTGCTT (site CTACAACCTAA) | 0.0455
37 | CTACACCCTTGGGTTCTAACCTGTTGCTT (site CTACACCCTAA) | 1.39
38 | CTACACCCTTGGGTTCTAACCTGTTGCTT (site CTACAGCCTAA) | 0.296
39 | CTACACCCTTGGGTTCTAACCTGTTGCTT (site CTACATCCTAA) | 0.22
40 | CTACAGGCTTGGGTTCTAACCTGTTGCAC (site CTACAGGCTGT) | 1

Row | Sequence | recombinant barcode read abundance (log10)
41 | CTACAGGCTTGGGTTCTAACCTGTTGCAC (site GAGTCTTCTTG) | 0.165
42 | CTACCACCTTGGGTTCTAACCTGTTGCCT (site CTACCAACTAG) | 0.16
43 | CTACCACCTTGGGTTCTAACCTGTTGCCT (site CTACCACCTAG) | 1.8
44 | CTACCACCTTGGGTTCTAACCTGTTGCCT (site CTACCAGCTAG) | 0.0722
45 | CTACCACCTTGGGTTCTAACCTGTTGCCT (site CTACCATCTAG) | 0.214
46 | CTACCATCTTGGGTTCTAACCTGTTGCCT (site CTACCAACTAG) | 0.0518
47 | CTACCATCTTGGGTTCTAACCTGTTGCCT (site CTACCACCTAG) | 0.0894
48 | CTACCATCTTGGGTTCTAACCTGTTGCCT (site CTACCAGCTAG) | 0.278
49 | CTACCATCTTGGGTTCTAACCTGTTGCCT (site CTACCATCTAG) | 0.948
50 | CTACCGTCTTGGGTTCTAACCTGTTGCGG (site CTACCATCTCG) | 0.285
51 | CTACCGTCTTGGGTTCTAACCTGTTGCGG (site CTACCGTCTCC) | 1.97
52 | CTACCTCCTTGGGTTCTAACCTGTTGCGT (site CTACCTCCTAC) | 1.16
53 | CTACCTCCTTGGGTTCTAACCTGTTGCGT (site CTACTTCCTAC) | 0.37
54 | CTACGAACTTGGGTTCTAACCTGTTGCTG (site CTACGAACTCA) | 1.53
55 | CTACGAACTTGGGTTCTAACCTGTTGCTG (site CTACGCACTCA) | 0.167
56 | CTACGAACTTGGGTTCTAACCTGTTGCTG (site CTACGGACTCA) | 0.102
57 | CTACGAACTTGGGTTCTAACCTGTTGCTG (site CTACGTACTCA) | 0.142
58 | CTACGTCCTTGGGTTCTAACCTGTTGCTG (site CTACGTCCTAA) | 0.0384
59 | CTACGTCCTTGGGTTCTAACCTGTTGCTG (site CTACGTCCTCA) | 1.64
